How the values were obtained:
PSMA = biological target: T1, PSMA (Homo sapiens, UniProt Q04609); assay: In vitro competition binding assay on LNCaP cells with ^18F-DCFPyL as radioligand
T1 construct: because it expresses PSMA endogenously and is commonly used to evaluate PSMA-targeting radiotracers; endogenous in cells; host or cells: LNCaP cells
Procedure: LNCaP cells were plated onto a 24-well poly-D-lysine coated plate for 48 h (400,000/well). […] Nonspecific binding was determined in the presence of 10 μM unlabeled DCFPyL. The assay mixtures were incubated for 1 h at 37°C with gentle agitation followed by 2 washes with cold HEPES buffered saline. A trypsin solution (0.25%, 400 μL) was then added to each well to harvest the cells. Radioactivity was measured by γ-counting, and Ki values were calculated using the “1 site—fit Ki” built-in model in Prism 7 (GraphPad).

LNCaP xenografts = assay: Ex vivo biodistribution and blocking studies in mice bearing LNCaP xenografts; details: for tumor uptake: LNCaP tumor
Procedure: Imaging and biodistribution experiments were performed using NODSCID IL2RγKO male mice. All experiments were conducted according to the guidelines established by the Canadian Council on Animal Care and approved by the Animal Ethics Committee of the University of British Columbia. Mice were anesthetized by inhalation with 2% isoflurane in oxygen and implanted subcutaneously with 1 × 10^7 LNCaP cells behind the left shoulder. The mice were imaged or used in biodistribution studies once the tumor reached 5–8 mm in diameter (5–6 wk).
For biodistribution and blocking studies, the mice were injected with 1–3 MBq of radiotracer. At 60 min, the mice were anesthetized with 2% isoflurane inhalation and euthanized by CO2 inhalation. Blood was withdrawn by cardiac puncture, and the organs and tissues of interest were collected, weighed, and counted using an automatic γ-counter (PerkinElmer). Uptake values were expressed as the percentage of the injected dose per gram of tissue (%ID/g).
A standard 1-way ANOVA was performed to determine whether statistically significant differences in tumor uptake occurred between radiotracers. Each radiotracer was compared with ^18F-DCFPyL using the Dunnett test (a many-to-one t test comparison). This analysis was also performed for kidney and blood activity and for tumor-to-blood and tumor-to-muscle ratios. Reported P values were adjusted for multiple comparisons. The analysis was performed using Prism 8 (GraphPad). […]
Statistical analyses were performed using GradPad prism 7. Multiple t tests were performed to compare biodistribution in unblocked and blocked mice, multiple comparisons were corrected using the Holm-Sidak method. The difference was considered statistically significant when p value was < 0.05.
Supplemental Table 1 – Complete biodistribution study for compounds [18F]1–3 […]
Tissue 1h 1h blocked 1h 1h blocked 1h 1h blocked
(%ID/g) n = 8 n = 4 n = 6 n = 4 n = 8 n = 5 […]
(1 picture or pasted object on this page, not shown here)

[1] = Distribution coefficient (LogD7.4), shake flask method; type: physicochemical; details: n-octanol / phosphate buffer 0.1 M pH 7.4; n = 3
Procedure: LogD7.4 values were measured using the shake flask method. Briefly, an aliquot of ^18F-labeled tracer was added to a vial containing 2.5 mL of n-octanol and 2.5 mL of phosphate buffer (0.1 M, pH 7.4). The mixture was vortexed for 2 min and then centrifuged at 3,000g for 10 min. A sample of the n-octanol (0.1 mL) and buffer (0.1 mL) layers was counted using a γ-counter. Values of LogD7.4 were calculated using the following equation: LogD7.4 = log10 [(counts in n-octanol phase)/(counts in buffer phase)].

[2] = 1 h blocked (coinjection of DCFPyL 0.5 mg)

T1 sequence (Q04609 whole entry): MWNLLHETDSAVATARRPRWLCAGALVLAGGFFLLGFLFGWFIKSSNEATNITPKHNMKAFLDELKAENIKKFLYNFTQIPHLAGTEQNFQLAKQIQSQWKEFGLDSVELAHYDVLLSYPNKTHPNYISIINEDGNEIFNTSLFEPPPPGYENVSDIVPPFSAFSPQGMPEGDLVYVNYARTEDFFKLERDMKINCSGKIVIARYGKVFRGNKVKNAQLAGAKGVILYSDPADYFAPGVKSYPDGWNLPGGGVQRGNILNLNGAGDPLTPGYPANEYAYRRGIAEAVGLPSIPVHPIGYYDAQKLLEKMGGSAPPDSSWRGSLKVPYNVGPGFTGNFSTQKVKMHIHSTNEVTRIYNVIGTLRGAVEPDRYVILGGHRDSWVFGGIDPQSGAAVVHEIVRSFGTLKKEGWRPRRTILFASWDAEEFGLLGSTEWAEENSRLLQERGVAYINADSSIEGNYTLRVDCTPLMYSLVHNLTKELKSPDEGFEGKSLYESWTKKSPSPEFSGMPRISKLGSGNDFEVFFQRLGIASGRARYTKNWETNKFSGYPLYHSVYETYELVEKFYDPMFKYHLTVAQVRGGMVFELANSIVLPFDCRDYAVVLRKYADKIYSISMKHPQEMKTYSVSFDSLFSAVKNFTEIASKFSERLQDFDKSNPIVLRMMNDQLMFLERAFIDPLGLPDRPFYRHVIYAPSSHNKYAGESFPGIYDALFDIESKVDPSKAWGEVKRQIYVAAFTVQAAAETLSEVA

Ki (PSMA): 11.8 ± 0.9 nM
T/B (tumor-to-blood ratio) (LNCaP xenografts; 1 h after injection, unblocked): 15.95 ± 1.37
T/K (tumor-to-kidney ratio) (LNCaP xenografts; 1 h after injection, unblocked): 0.12 ± 0.04
T/M (tumor-to-muscle ratio) (LNCaP xenografts; 1 h after injection, unblocked): 37.30 ± 9.53
adrenal uptake (LNCaP xenografts; 1 h after injection, unblocked): 4.65 ± 1.75 %ID/g
blood uptake (LNCaP xenografts; 1 h after injection, unblocked): 0.52 ± 0.06 %ID/g
bone uptake (LNCaP xenografts; 1 h after injection, unblocked): 0.44 ± 0.09 %ID/g
brain uptake (LNCaP xenografts; 1 h after injection, unblocked): 0.04 ± 0.01 %ID/g
fat uptake (LNCaP xenografts; 1 h after injection, unblocked): 0.73 ± 0.26 %ID/g
heart uptake (LNCaP xenografts; 1 h after injection, unblocked): 0.33 ± 0.08 %ID/g
intestine uptake (LNCaP xenografts; 1 h after injection, unblocked): 0.33 ± 0.05 %ID/g
kidney uptake (LNCaP xenografts; 1 h after injection, unblocked): 71.70 ± 18.0 %ID/g
liver uptake (LNCaP xenografts; 1 h after injection, unblocked): 1.69 ± 0.19 %ID/g
lung uptake (LNCaP xenografts; 1 h after injection, unblocked): 1.39 ± 0.17 %ID/g
muscle uptake (LNCaP xenografts; 1 h after injection, unblocked): 0.23 ± 0.04 %ID/g
pancreas uptake (LNCaP xenografts; 1 h after injection, unblocked): 0.33 ± 0.05 %ID/g
spleen uptake (LNCaP xenografts; 1 h after injection, unblocked): 5.01 ± 0.64 %ID/g
stomach uptake (LNCaP xenografts; 1 h after injection, unblocked): 0.10 ± 0.03 %ID/g
testes uptake (LNCaP xenografts; 1 h after injection, unblocked): 0.67 ± 0.17 %ID/g
tumor uptake compared with ^18F-DCFPyL (LNCaP xenografts; 1 h after injection, 1-way ANOVA, Dunnett test): No statistically significant differences
T/B (tumor-to-blood ratio) (LNCaP xenografts; [2]): 0.77 ± 0.48
T/K (tumor-to-kidney ratio) (LNCaP xenografts; [2]): 0.13 ± 0.02
T/M (tumor-to-muscle ratio) (LNCaP xenografts; [2]): 2.66 ± 1.60
adrenal uptake (LNCaP xenografts; [2]): 0.20 ± 0.05 %ID/g
blood uptake (LNCaP xenografts; [2]): 0.46 ± 0.24 %ID/g
bone uptake (LNCaP xenografts; [2]): 0.30 ± 0.06 %ID/g
brain uptake (LNCaP xenografts; [2]): 0.02 ± 0.00 %ID/g
fat uptake (LNCaP xenografts; [2]): 0.06 ± 0.01 %ID/g
heart uptake (LNCaP xenografts; [2]): 0.09 ± 0.02 %ID/g
intestine uptake (LNCaP xenografts; [2]): 0.31 ± 0.02 %ID/g
kidney uptake (LNCaP xenografts; [2]): 2.11 ± 0.19 %ID/g
liver uptake (LNCaP xenografts; [2]): 1.76 ± 0.17 %ID/g
lung uptake (LNCaP xenografts; [2]): 0.22 ± 0.03 %ID/g
muscle uptake (LNCaP xenografts; [2]): 0.12 ± 0.05 %ID/g
pancreas uptake (LNCaP xenografts; [2]): 0.06 ± 0.01 %ID/g
spleen uptake (LNCaP xenografts; [2]): 0.09 ± 0.03 %ID/g
stomach uptake (LNCaP xenografts; [2]): 0.06 ± 0.02 %ID/g
testes uptake (LNCaP xenografts; [2]): 0.08 ± 0.02 %ID/g
tumor uptake (LNCaP xenografts; 1 h after injection, unblocked, listed as 2): 8.3 ± 1.3 %ID/g
tumor uptake (LNCaP xenografts; 1 h after injection, unblocked, listed as [18F]2): 8.28 ± 1.25 %ID/g
tumor uptake (LNCaP xenografts; [2]): 0.27 ± 0.06 %ID/g
logD at 2 min [1]: -4.26 ± 0.04
Compound: C[N+](C)(Cc1cn(Cc2ccc(C(=O)NCCCC[C@H](NC(=O)N[C@@H](CCC(=O)O)C(=O)O)C(=O)O)cc2)nn1)C[B-](F)(F)F [^18F-2]
